From PMC11513924, “Addressing the Intracellular Vestibule of the Plasmodial Lactate Transporter PfFNT by p-Substituted Inhibitors Amplifies In Vitro Activity” (Journal of Medicinal Chemistry, 2024) come the findings set out here.

Assay [1] concerns the target T1, PfFNT (Plasmodium falciparum, UniProt O77389).
T1 construct: expressed in transfected cells; membranes solubilized
T1 sequence (O77389 1-309): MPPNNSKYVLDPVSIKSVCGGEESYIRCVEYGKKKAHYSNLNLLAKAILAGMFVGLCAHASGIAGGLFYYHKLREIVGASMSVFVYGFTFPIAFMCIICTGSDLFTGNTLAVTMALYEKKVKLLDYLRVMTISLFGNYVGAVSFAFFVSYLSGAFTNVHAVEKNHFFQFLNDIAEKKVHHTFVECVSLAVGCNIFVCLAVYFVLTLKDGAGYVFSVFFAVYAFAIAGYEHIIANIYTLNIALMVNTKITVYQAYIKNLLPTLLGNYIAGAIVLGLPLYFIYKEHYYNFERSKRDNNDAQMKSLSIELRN
Kind of assay: Fluorescence cross-correlation spectroscopy (FCCS) competition binding to solubilized PfFNT-GFP. On the procedure:
FCCS measurements were conducted and analyzed as before.[20],[30] Briefly, membranes of stably transfected cells expressing PfFNT with a C-terminal GFP (green) were solubilized. BH267.meta 2 fused with DY647 (red) was used as a tracer to monitor the binding of compounds in a competition assay. Assays were done in […] glass bottom plates (cat. no. PS96B-G175, SWISSCI, Switzerland) using a plate reader (Insight, Evotec Technologies, Germany) fitted with a U-Apo300 40× water immersion lens, NA 1.15 (Olympus, Japan). Excitation was done with an argon-ion laser (488 nm) and a helium–neon laser (633 nm). Fluorescence fluctuations were recorded 10 times for 5 s per sample and fitted using FCS+ plus Analyze (PerkinElmer software). Initially, IC50 values were determined from the concentration of the dual labeled complex titrated against a competitor in a range of 100 pM to 100 μM (Figure S1). Then, Ki values were calculated using the Cheng Prusoff equation[31] based on the previously determined KD value for the BH267.meta-DY647 tracer.[20]

Assay [2] deals with Plasmodium falciparum 3D7 parasites. The experiment in a line: P. falciparum 3D7 culture growth assay in erythrocytes (in vitro activity). The class given is cell-based. Conditions: Plasmodium falciparum, 3D7, Erythrocyte; for activity at 0.05 µM / activity at 0.1 µM / activity at 0.2 µM: 48 h, % of untreated control; for activity at 0.05 µM: read-out: % Growth at 50 nM (in vitro, 3D7); for activity at 0.1 µM: 100 nM compound, read-out: % Growth at 100 nM (in vitro, 3D7); for activity at 0.2 µM: 200 nM compound, read-out: % Growth at 200 nM (in vitro, 3D7). Here is the method: The parasitemia was measured using an LSR II FACS (BD Biosciences) as described.[34],[35] Growth was assessed as % of untreated control. EC50 curves were plotted using Graph Pad Prism.
Transport assays in yeast were done in triplicate biological replicates. At least nine technical replicates were measured around the IC50 value, concentrations with no or full inhibition were determined from at least three technical replicates. […] IC50 and EC50 curves were fitted by the Hill equation with variable slope (Graph Pad Prism 10). Error bars denote ± SEM (for n ≥ 3) or ± range (for n = 2). […] Cytotoxicity was determined from biological triplicates; error is shown as SEM.

Assay [3] addresses T1, PfFNT. Kind of assay: Yeast-based PfFNT 14C-lactate transport assay. The class given is cell-based. Conditions: 14C-lactate transport, PfFNT wild type; read-out: IC50 (transport, yeast). On the procedure:
(§1) Lactate transport functionality of PfFNT was assayed as described before.[4] Briefly, Saccharomyces cerevisiae W303-1A jen1Δady2Δcells[32] (MATa, can1-100, ade2-loc, his3-11-15, leu2-3,-112, trp1-1-1, ura3-1, jen1::kanMX4, ady2::hphMX4) kindly provided by M. Casal expressing PfFNT was grown at 29 °C to an OD600 of 1 (±0.1). Harvested cells were resuspended to an OD600 of 50 (±5) in 50 mM HEPES/Tris, pH 6.8 (±0.1). 10–15 min prior to the assay, 80 μL of yeast suspension were added to 1 μL of DMSO with or without inhibitor in a 1.5 mL reaction tube at 18 °C. Twenty μL of L-lactate solution spiked with [1-^14C]-L-lactate (Hartmann Analytic) was added yielding a 1 mM inward gradient with 0.04 μCi label. Transport was stopped after 30 s by abrupt dilution with 1 mL of ice-cold water, vacuum filtration via GF/C filter membranes (Whatman), and washing with 7 mL of ice-cold water. The radio label was analyzed by liquid scintillation counting in 3 mL of scintillation cocktail (Rotiszint eco plus, Carl Roth) using a Packard TriCarb 2900 TR (PerkinElmer Inc.).
(§2) Transport assays in yeast were done in triplicate biological replicates. At least nine technical replicates were measured around the IC50 value, concentrations with no or full inhibition were determined from at least three technical replicates. EC50-values were determined from 2 to 4 biological replicates. IC50 and EC50 curves were fitted by the Hill equation with variable slope (Graph Pad Prism 10). Error bars denote ± SEM (for n ≥ 3) or ± range (for n = 2). For the EC50-value of 7a the error of the fitting of the curve is given. Cytotoxicity was determined from biological triplicates; error is shown as SEM.

The target of another assay is T2, PfFNT G107S (Plasmodium falciparum, UniProt O77389, G107S).
T2 construct: expressed in transfected cells; host or cells: Saccharomyces cerevisiae (yeast transport assay; strain as for wild type, inferred from the shared method)
T2 sequence (O77389 1-309 G107S): T1 sequence (O77389 1-309) with G107S
Kind of assay: Yeast-based 14C-lactate transport assay, PfFNT G107S resistance mutant. The assay is classed as cell-based. Here is the method:
as §1, §2

Numbering of substitutions follows the chain as printed.

The term Ki denotes the equilibrium dissociation constant of an inhibitor or competing ligand from its target. As usually defined, the IC50 is the point on the concentration scale where inhibition reaches its midpoint. Regarding `O=C(/C=C(\O)C(F)(F)C(F)(F)F)c1ccc(NC2CC2)nc1` [7k, 1-(6-(Cyclopropylamino)pyridin-3-yl)-4,4,5,5,5-pentafluoro-3-hydroxypent-2-en-1-one], on PfFNT [1], the Ki came out at 10 ± 2 nM. In assay [2] (50 nM compound), the activity at 0.05 µM turned out to be 44%. In assay [2], the activity at 0.1 µM stood at 11% and the activity at 0.2 µM is 5%. The IC50 at PfFNT [3] is 190 ± 20 nM.
The molecule `O=C(/C=C(\O)C(F)(F)C(F)(F)F)c1ccc(NC2CCC2)nc1` [7l, 1-(6-(Cyclobutylamino)pyridin-3-yl)-4,4,5,5,5-pentafluoro-3-hydroxypent-2-en-1-one] showed a Ki at PfFNT [1] of 23 ± 7 nM. For the same molecule, the activity at 0.05 µM in assay [2] (50 nM compound) is 59%. In addition, in assay [2], the activity at 0.1 µM amounted to 16% and the activity at 0.2 µM was found to be 7%. Besides, the IC50 at PfFNT [3] was found to be 260 ± 30 nM.
In turn, `O=C(/C=C(\O)C(F)(F)C(F)(F)F)c1ccc(NCC2CC2)nc1` [7m, 1-(6-((Cyclopropylmethyl)amino)pyridin-3-yl)-4,4,5,5,5-pentafluoro-3-hydroxypent-2-en-1-one] came in with a Ki on PfFNT [1] of 18 ± 3 nM. Moreover, the activity at 0.05 µM in assay [2] (50 nM compound) was 6%. For the same molecule, in assay [2], the activity at 0.1 µM is 3% and the activity at 0.2 µM stood at 2%. The inhibition at 0.05 µM in assay [2] (50 nM compound, 100 minus % growth, read-out: inhibitory activity at 50 nM (in vitro, 3D7)) was found to be 94%. In addition, the IC50 on PfFNT [3] was 170 ± 10 nM.
Molecule `CC(C)Nc1ccc(C(=O)/C=C(\O)C(F)(F)C(F)(F)F)cn1` [7n, 4,4,5,5,5-Pentafluoro-3-hydroxy-1-(6-(isopropylamino)pyridin-3-yl)pent-2-en-1-one] came in with a Ki at PfFNT [1] of 67 ± 11 nM. Further, the activity at 0.05 µM in assay [2] (50 nM compound) came to 53%. For the same molecule, in assay [2], the activity at 0.1 µM came out at 31% and the activity at 0.2 µM was 15%. Besides, the IC50 at PfFNT [3] came out at 150 ± 10 nM.
At PfFNT [1], `CC(C)(C)Nc1ccc(C(=O)/C=C(\O)C(F)(F)C(F)(F)F)cn1` [7o, 1-(6-(tert-Butylamino)pyridin-3-yl)-4,4,5,5,5-pentafluoro-3-hydroxypent-2-en-1-one] registered a Ki of 239 ± 101 nM. Besides, the activity at 0.05 µM in assay [2] (50 nM compound) was 97%. In assay [2], the activity at 0.1 µM worked out at 97% and the activity at 0.2 µM was 93%. The IC50 at PfFNT [3] was found to be 370 ± 40 nM.
On PfFNT [1], `O=C(/C=C(\O)C(F)(F)C(F)(F)F)c1ccc(NCc2ccc(F)cc2)nc1` [7p, 4,4,5,5,5-Pentafluoro-1-(6-((4-fluorobenzyl)amino)pyridin-3-yl)-3-hydroxypent-2-en-1-one] registered an inhibition constant Ki of 16 ± 3 nM. In addition, in assay [2] (50 nM compound), the activity at 0.05 µM was determined as 37%. Further, in assay [2], the activity at 0.1 µM was 7% and the activity at 0.2 µM came to 0%. In addition, the concentration for half-maximal inhibition (IC50) on PfFNT [3] came to 390 ± 30 nM.
`COc1cc(CNc2ccc(C(=O)/C=C(\O)C(F)(F)C(F)(F)F)cn2)cc(OC)c1OC` [7q, 4,4,5,5,5-Pentafluoro-3-hydroxy-1-(6-((3,4,5-trimethoxybenzyl)amino)pyridin-3-yl)pent-2-en-1-one] displayed a Ki at PfFNT [1] of 49 ± 12 nM. For the same molecule, the activity at 0.05 µM in assay [2] (50 nM compound) stood at 107%. In assay [2], the activity at 0.1 µM came to 105% and the activity at 0.2 µM was 117%. In addition, the IC50 on PfFNT [3] stood at 2110 ± 320 nM.
As to `CCCN(C)c1ccc(C(=O)/C=C(\O)C(F)(F)C(F)(F)F)cn1` [7r, 4,4,5,5,5-Pentafluoro-3-hydroxy-1-(6-(methyl(propyl)amino)pyridin-3-yl)pent-2-en-1-one], the Ki on PfFNT [1] amounted to 98 ± 11 nM. Moreover, the activity at 0.05 µM in assay [2] (50 nM compound) came out at 114%. In assay [2], the activity at 0.2 µM came out at 96%. For the same molecule, the IC50 on PfFNT [3] is 350 ± 80 nM.
`CCN(CC)c1ccc(C(=O)/C=C(\O)C(F)(F)C(F)(F)F)cn1` [7s, 1-(6-(Diethylamino)pyridin-3-yl)-4,4,5,5,5-pentafluoro-3-hydroxypent-2-en-1-one]: the affinity at PfFNT [1] corresponds to a Ki of 142 ± 24 nM. The activity at 0.05 µM in assay [2] (50 nM compound) was 71%. Further, in assay [2], the activity at 0.1 µM was found to be 76% and the activity at 0.2 µM amounted to 80%. The IC50 at PfFNT [3] came to 380 ± 20 nM.
In the same order, the values of `CCC(=O)Nc1ccc(C(=O)/C=C(\O)C(F)(F)C(F)(F)F)cn1` [8b, N-(5-(4,4,5,5,5-Pentafluoro-3-hydroxypent-2-enoyl)pyridin-2-yl)propionamide] are 27 ± 4 nM, 17%, 10%, 4% and 250 ± 20 nM.
In the same order, the values of `O=C(/C=C(\O)C(F)(F)C(F)(F)F)c1ccc(NC(=O)c2ccccc2)nc1` [8c, N-(5-(4,4,5,5,5-Pentafluoro-3-hydroxypent-2-enoyl)pyridin-2-yl)benzamide] are 16 ± 2 nM, 78%, 51%, 13% and 370 ± 20 nM.
Turning to `O=C(/C=C(\O)C(F)(F)C(F)(F)F)c1cccc(O)c1` [compound 6, 4,4,5,5,5-Pentafluoro-3-hydroxy-1-(3-hydroxyphenyl)pent-2-en-1-one], the IC50 against PfFNT G107S is 6710 nM; on PfFNT [3] it was 160 ± 10 nM. Besides, at PfFNT [1], the affinity corresponds to a Ki of 26 ± 3 nM.
